The values below come from patent US20060128769A1, “Thiazoyl biphenyl amides” (priority 2002, published 2006).

Read-outs that look alike come from different tables or passages of the source.

One data set relates to Botrytis cinerea. In words: Botrytis test (bean)/protective. In kind it is in vivo. The conditions noted are these: 48 h, protective, application rate 500 g/ha, evaluation 2 days after inoculation, read-out: % efficacy. Here is the method: (§1) • Solvents: 24.5 parts by weight of acetone 24.5 parts by weight of dimethylacetamide • Emulsifier: 1.0 part by weight of alkylaryl polyglycol ether
(§2) To produce a suitable preparation of active compound, 1 part by weight of active compound is mixed with the stated amounts of solvents and emulsifier, and the concentrate is diluted with water to the desired concentration.
To test for protective activity, young plants are sprayed with the preparation of active compound at the stated application rate. After the spray coating has dried on, 2 small pieces of agar colonized by Botrytis cinerea are placed onto each leaf. The inoculated plants are placed in a dark chamber at about 20° C. and 100% relative atmospheric humidity.
2 days after the inoculation, the size of the infected areas on leaves is evaluated. 0% means an efficacy which corresponds to that of the control, whereas an efficacy of 100% means that no infection is observed.

Data set [1] is described as follows: logP determination by HPLC on a reversed-phase column (C 18), EEC Directive 79/831 Annex V.A8. The class given is physicochemical. The conditions noted are these: reversed-phase HPLC column (C 18). Here is the method:
The logP values given in the preparation examples and tables above are determined in accordance with EEC Directive 79/831 Annex V.A8 by HPLC (High Performance Liquid Chromatography) using a reversed-phase column (C 18). Temperature: 43° C. The determination is carried out in the acidic range at pH 2.3 using the mobile phases 0.1% aqueous phosphoric acid and acetonitrile; linear gradient from 10% acetonitrile to 90% acetonitrile. Calibration is carried out using unbranched alkan-2-ones (having 3 to 16 carbon atoms) with known logP values (determination of the logP values by the retention times using linear interpolation between two successive alkanones).

For the next data set, the system named is Venturia inaequalis. In words: Venturia test (apple)/protective. In kind it is in vivo. The following applies: 240 h, protective, application rate 100 g/ha, evaluation 10 days after inoculation, read-out: % efficacy. Here is the method:
as §1, §2
To test for protective activity, young plants are sprayed with the preparation of active compound at the stated application rate. After the spray coating has dried on, the plants are inoculated with an aqueous conidia suspension of the apple scab pathogen Venturia inaequalis and then remain in an incubation cabin at about 20° C. and 100% relative atmospheric humidity for one day.
The plants are then placed in a greenhouse at about 21° C. and a relative atmospheric humidity of about 90%.
Evaluation is carried out 10 days after the inoculation. 0% means an efficacy which corresponds to that of the control, whereas an efficacy of 100% means that no infection is observed.

In another data set the test system is Sphaerotheca fuliginea. In words: Sphaerotheca test (cucumber)/protective. The class given is in vivo. The following applies: Podosphaera fuliginea, 168 h, protective, application rate 100 g/ha, evaluation 7 days after inoculation, read-out: % efficacy. Here is the method: • Solvents: 24.5 parts by weight of acetone 24.5 parts by weight of dimethylacetamide • Emulsifier: 1 part by weight of alkylaryl polyglycol ether
as §2
To test for protective activity, young plants are sprayed with the preparation of active compound at the stated application rate. After the spray coating has dried on, the plants are inoculated with an aqueous spore suspension of Sphaerotheca fuliginea. The plants are then placed in a greenhouse at about 23° C. and a relative atmospheric humidity of about 70%.
Evaluation is carried out 7 days after the inoculation. 0% means an efficacy which corresponds to that of the control, whereas an efficacy of 100% means that no infection is observed.

The next data set concerns Alternaria solani. In words: Alternaria test (tomato)/protective. The class given is in vivo. The conditions noted are these: 168 h, protective, application rate 750 g/ha, evaluation 7 days after inoculation, read-out: % efficacy. Here is the method: • Solvent: 49 parts by weight of N,N-dimethylformaide • Emulsifier: 1 part by weight of alkylaryl polyglycol ether To produce a suitable preparation of active compound, 1 part by weight of active compound is mixed with the stated amounts of solvent and emulsifier, and the concentrate is diluted with water to the desired concentration. To test for protective activity, young tomato plants are sprayed with the preparation of active compound at the stated application rate. 1 day after the treatment, the plants are inoculated with an aqueous spore suspension of Alternaria solani and then remain at 100% relative humidity for 24 hours. The plants then remain at about 96% relative atmospheric humidity and a temperature of 20° C. Evaluation is carried out 7 days after the inoculation. 0% means an efficacy which corresponds to that of the control, whereas an efficacy of 100% means that no infection is observed.

Setting [2] is: pH 2.3, HPLC reversed-phase C 18, 43° C., 0.1% aqueous phosphoric acid/acetonitrile, read-out: logP (pH 2.3).
The mark [3] stands for this setting: Table 1, acidic range pH 2.3, HPLC reversed-phase C 18, 43° C., read-out: logP.

As to `CC(=O)N(C(=O)c1sc(C)nc1C(F)F)c1ccccc1-c1ccc(Br)cc1` [Example 1, N-acetyl-N-(4′-bromo-1,1′-biphenyl-2-yl)-4-(difluoromethyl)-2-methyl-1,3-thiazole-5-carboxamide], the Emax at 500 g/ha with Botrytis cinerea was 98%. Moreover, the chromatographic logP in data set [1] (setting [2]) worked out at 3.61. Further, the Emax at 100 g/ha in the data set on Venturia inaequalis and in the data set with Sphaerotheca fuliginea was 100% in each case.

Turning to `Cc1nc(C(F)F)c(C(=O)N(C)c2ccccc2-c2ccc(Cl)cc2)s1` [Example 2], in data set [1] (setting [2]), the chromatographic logP was found to be 3.34. Further, the Emax at 100 g/ha in the data set with Sphaerotheca fuliginea is 95%.

Take `Cc1nc(C(F)F)c(C(=O)N(C(=O)c2sc(C)nc2C(F)F)c2ccccc2-c2cc(Cl)cc(Cl)c2)s1` [Example 4]: the Emax at 500 g/ha with Botrytis cinerea was 94%. Also, the chromatographic logP in data set [1] (setting [3]) was 4.28. Moreover, in the data set on Alternaria solani, the Emax at 750 g/ha amounted to 95%. Moreover, the Emax at 100 g/ha with Venturia inaequalis came to 99%; with Sphaerotheca fuliginea, 100%.

For `Cc1nc(C(F)F)c(C(=O)N(C)c2ccccc2-c2ccc(Br)cc2)s1` [Example 6], the chromatographic logP in data set [1] (setting [3]) was found to be 3.44. In the data set with Sphaerotheca fuliginea, the Emax at 100 g/ha is 100%.

What is called melting point is the temperature, or range, at which the solid turns liquid. Consider `Cc1nc(C(F)F)c(C(=O)Nc2ccccc2-c2ccc(Br)cc2)s1` [II-1, N-(4′-bromo-1,1′-biphenyl-2-yl)-2-methyl-4-(difluoromethyl)-1,3-thiazole-5-carboxamide], for which the melting point was 151 °C. The chromatographic logP in data set [1] (setting [2]) amounted to 3.34.

For the compound `Cc1nc(C(F)F)c(C(=O)Nc2ccccc2-c2ccc(Cl)cc2)s1` [II-2, N-(4′-chloro-1,1′-biphenyl-2-yl)-2-methyl-4-(difluoromethyl)-1,3-thiazole-5-carboxamide], the melting point amounted to 144 °C. Besides, the chromatographic logP in data set [1] (setting [2]) worked out at 3.26.
